# From patent US8697385B1, “Protein controlling synthesis of collagen and associated methods” (Florida State University Research Foundation, Inc., priority 2009, dated 2014)
# Experiments:
# [1] = system: primary scleroderma skin fibroblasts; test: Western blot analysis of cellular and medium collagen polypeptides, scleroderma fibroblasts; format: cell-based, human; conditions: 16 h, ML-7 40 μM, blebbistatin 100 μM
# Description: ML-7, blebbistatin, cytochalasin B, puromycin, and cycloheximide were purchased from Sigma. ML-7 was used at 40 μM, blebbistatin was used at 100 μM, and cytochalasin B was used at 20 μM. Cells were incubated with the drugs for 16 h before analysis. Puromycin (200 μg/ml) and cycloheximide (100 μg/ml) were added to the cells for 2 h. Human lung fibroblasts have been described previously.16 Scleroderma fibroblasts were purchased from the European Collection of Cell Cultures (cell line BM0070) and derived from the skin of a scleroderma patient. MEFs were derived from knock-in mice in which the 5′SL of the collagen α1(I) gene has been mutated (Parsons et al., submitted). Several independent cell isolates were used throughout the study. All cells were cultured in Dulbecco's modified Eagle's medium supplemented with 10% fetal bovine serum for up to 10 passages. Plasmid constructs and adenovirus preparation. The HA-tagged LARP6 clone and the deletion mutants have been described previously.^16 Adenoviruses were constructed by recloning of the constructs into the pAdCMVTRACK vector, followed by recombination with the pAdEasy vector and amplification, as described previously.^48 Expression of each construct was verified by Western blot analysis. The viruses made express both the full-size test protein and the green fluorescent protein (GFP), which is encoded by an independent transcription unit.^48 Expression of GFP served as control for viral transduction. RT-PCR analysis Total cellular RNA was isolated using an RNA isolation kit (Sigma). RT-PCRs were performed with 100 ng of total RNA or using rTth reverse transcriptase (Boca Scientific, Boca Raton, Fla.). [^32P]dCTP was included in the PCR step to label the products, which were resolved on sequencing gels, as described previously.^8,31,49,50 When RNA from polysomal fractions was analyzed, an equal aliquot of each fraction was used. The number of cycles was adjusted to within the linear range of the reaction. The primers used for RT-PCR were as follows: h-collagen α1(I), 5′ primer […] (SEQ ID NO:3) and 3′ primer […] (SEQ ID NO:4); h-collagen α2(I), 5′ primer […] (SEQ ID NO:5) and 3′ primer […] (SEQ ID NO:6).
# Protein concentration was estimated by the Bradford assay, with bovine serum albumin as standard.^51 Western blot analyses of cellular proteins were performed using 50 μg of protein. For Western blot analysis of secreted proteins, equal numbers of cells were seeded, serum-free medium was added to the cells, and incubation continued for 3 h. The medium was collected, and an aliquot was analyzed directly by Western blot analysis. Use of serum free medium in collecting secreted proteins is essential because fetal calf serum contains substantial amounts of collagen and fibronectin.^15,31 For immunostaining, cells were seeded onto glass coverslips. After treatment, the cells were fixed with 4% paraformaldehyde for 30 min at room temperature and permeabilized with 0.5% Triton X-100 in phosphatebuffered saline (PBS) for 10 min. After the cells had been blocked with 10% goat serum/5% bovine serum albumin in PBS for 1 h at room temperature, they were incubated with primary antibody overnight at 4° C., washed, and visualized with AlexaFluor594-conjugated or Cy-2-conjugated secondary antibodies. The cells were mounted using VECTASHIELD mounting medium containing […], 6-diamidino-2-phenylindole (Vector Laboratories), and images were taken by a Leica TCS SP2 AOBS laser confocal microscope equipped with a Chameleon Ti: Sapphire multiphoton laser. Optical sections were processed with LCSLite software.
# To assess the role of nonmuscle myosin in collagen synthesis, we disrupted nonmuscle myosin filaments in two different cell types: primary human lung fibroblasts and primary scleroderma skin fibroblasts. These cells are responsible for lung and skin fibrosis. […]
# [2] = system: scleroderma fibroblasts; test: Apoptosis of primary scleroderma fibroblasts; format: cell-based; conditions: ML-7 did not have an effect
# Description: To assess the role of nonmuscle myosin in collagen synthesis, we disrupted nonmuscle myosin filaments in two different cell types: primary human lung fibroblasts and primary scleroderma skin fibroblasts. These cells are responsible for lung and skin fibrosis. […] To assess the effect of ML-7 on collagen protein synthesis and secretion, we analyzed the levels of collagen α1(I) and α2(I) polypeptides in the intracellularly space and in the medium using Western blot analysis and chain-specific antibodies.^12,15,31-33 ML-7 treatment profoundly affected the secretion of type I collagen, but the effect differed in the two types of primary fibroblasts. […] To assess if the secreted α1(I) polypeptides had been secreted as disulfide-bonded homotrimers, we performed Western blot analysis under nonreducing conditions (FIG. 3d). […] However, since α2(I) polypeptide was absent in the cell medium of ML-7-treated cells, the bands must represent disulfide-bonded collagen α1(I) chains. The α2(I) antibody could not recognize the polypeptide under nonreducing conditions, so we could not directly test its presence in S—S bonded collagen. Since there are reports that ML-7 can cause apoptosis of epithelial cells, we tested if ML-7 caused apoptosis of the primary fibroblasts. […] Therefore, we concluded that increased apoptosis is not responsible for the observed effects of ML-7. […]
# [3] = system: nonmuscle myosin filaments; test: Immunostaining of nonmuscle myosin IIB filaments in scleroderma fibroblasts; format: cell-based, human; conditions: ML-7, compared with effect in lung fibroblasts
# Description: ML-7, blebbistatin, cytochalasin B, puromycin, and cycloheximide were purchased from Sigma. ML-7 was used at 40 μM, blebbistatin was used at 100 μM, and cytochalasin B was used at 20 μM. Cells were incubated with the drugs for 16 h before analysis. Puromycin (200 μg/ml) and cycloheximide (100 μg/ml) were added to the cells for 2 h. Human lung fibroblasts have been described previously.16 Scleroderma fibroblasts were purchased from the European Collection of Cell Cultures (cell line BM0070) and derived from the skin of a scleroderma patient. MEFs were derived from knock-in mice in which the 5′SL of the collagen α1(I) gene has been mutated (Parsons et al., submitted). Several independent cell isolates were used throughout the study. All cells were cultured in Dulbecco's modified Eagle's medium supplemented with 10% fetal bovine serum for up to 10 passages. […] [^32P]dCTP was included in the PCR step to label the products, which were resolved on sequencing gels, as described previously.^8,31,49,50 When RNA from polysomal fractions was analyzed, an equal aliquot of each fraction was used. […]
# Protein concentration was estimated by the Bradford assay, with bovine serum albumin as standard.^51 Western blot analyses of cellular proteins were performed using 50 μg of protein. […] The medium was collected, and an aliquot was analyzed directly by Western blot analysis. […]
smiles,measurement,setting,value
O=S(=O)(c1cccc2c(I)cccc12)N1CCCNCC1 [ML-7],intracellular level of collagen α1(I) polypeptide,[1],not changed
same,intracellular level of collagen α2(I) polypeptide,[1],reduced
same,secretion of collagen α1(I) polypeptide into the medium,[1]; cytochalasin B 20 μM,barely detectable
same,secretion of collagen α2(I) polypeptide into the medium,[1]; cytochalasin B 20 μM,absent
same,secretion/expression of fibronectin,[1]; cytochalasin B 20 μM,not affected
same,percentage of apoptotic cells,[2],0.3%
same,myosin IIB immunostaining (filaments),[3],same effect
